{"source": "paper PMC9459842", "about": "“Chemical Profiling and Biological Activities of Pelargonium graveolens Essential Oils at Three Different Phenological Stages” (Plants, 2022)", "key": {"DPPH antioxidant assay": {"test": "DPPH antioxidant assay", "format": "biochemical", "settings": "n = 3", "experimental": "(§1) The antioxidant activity of PGEO was evaluated by using […] complementary methods, DPPH, FRAP, ABTS, and H2O2 assays, according to the previously published protocols. The results are expressed as the concentration of PGEO providing 50% inhibition (IC50) and calculated by plotting the inhibition degrees against the essential oil concentrations. Trolox and ascorbic acid were used as positive controls. The assays were carried out in triplicate, and the IC50 values were presented as means ± SD."}, "FRAP antioxidant assay": {"test": "FRAP antioxidant assay", "format": "biochemical", "settings": "n = 3", "experimental": "as §1"}, "ABTS antioxidant assay": {"test": "ABTS antioxidant assay", "format": "biochemical", "settings": "n = 3", "experimental": "as §1"}, "H2O2 antioxidant assay": {"test": "H2O2 antioxidant assay", "format": "biochemical", "settings": "n = 3", "experimental": "as §1"}, "[1]": {"tested_on": "rats treated with ethanol for the induction of gastric ulcers", "parameters": "method as in PMID 24466200", "settings": "50 mg/kg; cited from earlier work"}, "monocytes": {"tested_on": "monocytes", "parameters": "method as in PMID 9889172", "settings": "in vitro; cited from earlier work"}, "diabetic animals": {"tested_on": "diabetic animals", "parameters": "method as in PMID 28549291", "settings": "daily doses 25, 50, and 100 mg/kg b.w.; cited from earlier work"}, "[2]": {"tested_on": "carrageenan-induced edema", "parameters": "method as in PMID 12587692", "settings": "32, 64, and 96 mg/kg; cited from earlier work"}, "[3]": {"tested_on": "Proteus mirabilis ATCC 25933", "test": "disc diffusion assay", "format": "cell-based", "settings": "P. mirabilis ATCC 25933; 50 μL of oil/well, chloramphenicol 30 µg; includes 6 mm well", "experimental": "(§2) The antibacterial activity was evaluated against the following six bacterial strains representing Gram-positive and Gram-negative bacteria: Escherichia coli ATCC 25922, Proteus mirabilis ATCC 25933, Salmonella Typhimurium ATCC 700408, Bacillus subtilis ATCC 6633, Staphylococcus aureus ATCC 29213, and Listeria monocytogenes ATCC 13932. The tested bacterial strains were prepared by inoculating a loopful from the frozen stock (−20 °C) in Mueller–Hinton Agar (Biokar, Beauvais, France) and incubated at 37 °C for 24 h under an aerobic environment.\n(§3) The primary screening of the antimicrobial activity of the studied samples was evaluated by the disc diffusion method according to the previously published investigation. Briefly, the culture suspension of each species was inoculated in Mueller–Hinton Agar (Biolife, Italiana, Milano-Italy). […] Chloramphenicol (30 µg) was used as a positive control for bacteria strains, while dimethylsulfoxide (DMSO) (10 µL; 5%) was used as a negative control. The plates were incubated at the following growth conditions; 37 °C for 24 h, 25 °C for 48 h, and 25 °C for 72 h for bacteria, yeast, and fungi, respectively. After incubation, the inhibitory diameters were measured in millimeters, and the results were expressed as means ± Standard Deviation of three replicates."}, "[4]": {"tested_on": "Listeria monocytogenes ATCC 13932", "test": "disc diffusion assay", "format": "cell-based", "settings": "L. monocytogenes ATCC 13932; 50 μL of oil/well, chloramphenicol 30 µg; includes 6 mm well", "experimental": "as §2, §3"}, "[5]": {"tested_on": "Bacillus subtilis ATCC 6633", "test": "disc diffusion assay", "format": "cell-based", "settings": "B. subtilis ATCC 6633; 50 μL of oil/well, chloramphenicol 30 µg; includes 6 mm well", "experimental": "as §2, §3"}, "[6]": {"tested_on": "Salmonella Typhimurium ATCC700408", "test": "disc diffusion assay", "format": "cell-based", "settings": "S. Typhimurium ATCC700408; 50 μL of oil/well, chloramphenicol 30 µg; includes 6 mm well", "experimental": "as §2, §3"}, "[7]": {"tested_on": "Escherchia coli ATCC 25922", "test": "disc diffusion assay", "format": "cell-based, Escherichia coli", "settings": "E. coli ATCC 25922; 50 μL of oil/well, chloramphenicol 30 µg; includes 6 mm well", "experimental": "as §2, §3"}, "[8]": {"tested_on": "occlusion of the middle cerebral artery in male rats", "settings": "intraperitoneal 100 mg/kg, cited from earlier work"}, "[9]": {"tested_on": "alloxan-induced diabetic mice", "parameters": "method as in doi:10.23893/1307-2080.APS.05522", "settings": "2 and 24 h after the treatment; cited from earlier work"}, "[10]": {"tested_on": "catabolic and inflammatory pathways induced by IL-1β", "parameters": "method as in PMID 24455984", "settings": "in vitro; cited from earlier work"}, "COX-2": {"tested_on": "COX-2", "parameters": "method as in PMID 26721216", "settings": "cited from earlier work"}, "[11]": {"tested_on": "inflammatory responses by lipopolysaccharide (LPS) in mice", "settings": "cited from earlier work"}}, "note": "Marks after values point to notes of the source that are not given here."}
{"smiles": "Cc1c(C)c2c(c(C)c1O)CCC(C)(C(=O)O)O2", "note": "(stereo not shown) [Trolox]", "values": [{"measurement": "antioxidant activity IC50, DPPH", "setting": "DPPH antioxidant assay", "value": "24.31 ± 0.02 ^b μg/mL"}, {"measurement": "antioxidant activity IC50, FRAP", "setting": "FRAP antioxidant assay", "value": "48.25 ± 0.05 ^b μg/mL"}, {"measurement": "antioxidant activity IC50, ABTS", "setting": "ABTS antioxidant assay", "value": "61.48 ± 1.32 ^b μg/mL"}]}
{"smiles": "O=C1O[C@H]([C@@H](O)CO)C(O)=C1O", "note": "[Ascorbic Acid, Ascorbic acid]", "values": [{"measurement": "antioxidant activity IC50, DPPH", "setting": "DPPH antioxidant assay", "value": "15.13 ± 0.04 ^a μg/mL"}, {"measurement": "antioxidant activity IC50, H2O2", "setting": "H2O2 antioxidant assay", "value": "23.34 ± 0.03 ^a μg/mL"}, {"measurement": "antioxidant activity IC50, FRAP", "setting": "FRAP antioxidant assay", "value": "31.47 ± 1.07 ^a μg/mL"}, {"measurement": "antioxidant activity IC50, ABTS", "setting": "ABTS antioxidant assay", "value": "42.22 ± 0.05 ^a μg/mL"}]}
{"smiles": "CC1CCC(C(C)C)C(O)C1", "note": "(stereo not shown) [menthol]", "values": [{"measurement": "levels of IL-6 and TNF-α", "setting": "[1]", "value": "reduced the levels of IL-6 and TNF-α"}, {"measurement": "production of IL-1, PGE2, and LTB4", "setting": "monocytes", "value": "inhibit the production of inflammation mediators"}, {"measurement": "glycosylated hemoglobin, blood glucose levels", "setting": "diabetic animals", "value": "decreased glycosylated hemoglobin, blood glucose levels"}]}
{"smiles": "C=CC(C)(CCC=C(C)C)OC(C)=O", "note": "(stereo not shown) [linalyl acetate]", "values": [{"measurement": "carrageenan-induced edema", "setting": "[2]", "value": "remarkable reduction"}]}
{"smiles": "O=C(N[C@H](CO)[C@H](O)c1ccc([N+](=O)[O-])cc1)C(Cl)Cl", "note": "[Chloramphenicol]", "values": [{"measurement": "inhibitory diameter", "setting": "[3]", "value": "21.27 ± 0.21", "unit": "mm"}, {"measurement": "inhibitory diameter", "setting": "[4]", "value": "29.07 ± 0.58", "unit": "mm"}, {"measurement": "inhibitory diameter", "setting": "[5]", "value": "15.87 ± 0.21", "unit": "mm"}, {"measurement": "inhibitory diameter", "setting": "[6]", "value": "13.17 ± 0.25", "unit": "mm"}, {"measurement": "inhibitory diameter", "setting": "[7]", "value": "22.47 ± 0.21", "unit": "mm"}]}
{"smiles": "CC1=CCC2CC1C2(C)C", "note": "(stereo not drawn) [α-pinene]", "values": [{"measurement": "expression of IL-1 and TNF-α", "setting": "[8]", "value": "decreased"}, {"measurement": "concentration of IL-6, NO, and malondialdehyde (MDA)", "setting": "[8]; striatum, cortex, and hippocampus", "value": "decreased"}, {"measurement": "fasting blood glucose levels", "setting": "[9]", "value": "reduce fasting blood glucose levels"}, {"measurement": "expression of catabolic and inflammatory genes, activation of NF-κB and JNK", "setting": "[10]", "value": "strongly inhibits"}, {"measurement": "COX-2 overexpression", "setting": "COX-2", "value": "potent effect on COX-2 overexpression"}, {"measurement": "synthesis of nitric oxide (NO), TNF-α, and IL-6", "setting": "[11]", "value": "decrease the synthesis of nitric oxide (NO), TNF-α, and IL-6"}]}
